One experiment deals with T1, ER-alpha (Homo sapiens, UniProt P03372).
T1 construct: expressed in transfected cells
T1 sequence (P03372 1-595): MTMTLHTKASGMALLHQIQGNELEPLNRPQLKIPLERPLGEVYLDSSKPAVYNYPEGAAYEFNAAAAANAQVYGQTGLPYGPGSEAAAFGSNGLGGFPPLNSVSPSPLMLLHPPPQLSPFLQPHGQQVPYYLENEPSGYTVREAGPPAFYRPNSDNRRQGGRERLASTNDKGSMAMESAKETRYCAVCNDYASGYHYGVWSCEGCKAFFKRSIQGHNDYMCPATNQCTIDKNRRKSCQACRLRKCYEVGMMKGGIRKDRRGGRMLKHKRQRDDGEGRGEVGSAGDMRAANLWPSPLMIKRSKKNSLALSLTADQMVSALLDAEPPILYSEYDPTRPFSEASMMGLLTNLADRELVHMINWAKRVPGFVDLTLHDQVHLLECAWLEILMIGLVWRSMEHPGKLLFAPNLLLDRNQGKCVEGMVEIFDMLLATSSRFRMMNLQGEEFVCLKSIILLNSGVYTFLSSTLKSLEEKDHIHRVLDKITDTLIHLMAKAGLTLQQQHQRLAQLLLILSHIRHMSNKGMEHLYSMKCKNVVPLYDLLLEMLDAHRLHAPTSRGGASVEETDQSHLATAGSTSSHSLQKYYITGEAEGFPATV
The experiment is described as follows: U2-OS ER-alpha luciferase reporter cell line. It counts as cell-based.

Experiment [1] addresses T2, progesterone receptor (PR) (Homo sapiens, UniProt P06401).
T2 construct: expressed in transfected cells; host or cells: human U2-OS cells, stably transfected with pSG5-hPR
T2 sequence (P06401 1-933): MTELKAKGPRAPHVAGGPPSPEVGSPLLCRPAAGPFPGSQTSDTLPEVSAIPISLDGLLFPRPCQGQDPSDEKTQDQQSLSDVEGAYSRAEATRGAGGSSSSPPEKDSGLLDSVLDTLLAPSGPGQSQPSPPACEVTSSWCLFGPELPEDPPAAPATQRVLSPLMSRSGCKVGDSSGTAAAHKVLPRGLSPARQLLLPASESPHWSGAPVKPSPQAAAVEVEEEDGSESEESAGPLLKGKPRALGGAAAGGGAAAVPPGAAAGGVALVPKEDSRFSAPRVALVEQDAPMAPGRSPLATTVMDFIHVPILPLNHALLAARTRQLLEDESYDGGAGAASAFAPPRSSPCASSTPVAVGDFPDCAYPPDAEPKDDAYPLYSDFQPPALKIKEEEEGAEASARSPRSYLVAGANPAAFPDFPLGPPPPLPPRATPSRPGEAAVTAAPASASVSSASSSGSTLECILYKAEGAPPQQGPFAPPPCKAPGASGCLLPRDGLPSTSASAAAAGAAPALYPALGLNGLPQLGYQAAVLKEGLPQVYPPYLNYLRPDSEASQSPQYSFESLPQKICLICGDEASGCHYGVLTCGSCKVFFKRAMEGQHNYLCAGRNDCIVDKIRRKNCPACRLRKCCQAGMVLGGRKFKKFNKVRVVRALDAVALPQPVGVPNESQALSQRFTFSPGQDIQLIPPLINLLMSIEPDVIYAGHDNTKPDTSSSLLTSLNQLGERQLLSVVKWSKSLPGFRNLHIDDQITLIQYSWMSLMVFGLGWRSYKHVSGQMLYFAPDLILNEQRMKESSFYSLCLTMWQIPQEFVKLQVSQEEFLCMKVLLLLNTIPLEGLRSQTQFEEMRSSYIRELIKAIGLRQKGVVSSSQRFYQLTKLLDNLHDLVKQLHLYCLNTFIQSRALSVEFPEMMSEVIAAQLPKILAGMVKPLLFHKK
The experiment is described as follows: U2-OS PR cell line (pSG5-hPR, 3×HRE-TATA-Luc reporter). It counts as cell-based. The text has this:
Reporter constructs were made using specific synthetic multimerized hormone responsive elements which were cloned upstream of the synthetic TATA box in the pGL3-TATA-Luc vector. Stable transfected cell lines were made, when necessary co-transfected with a specific receptor-containing expression plasmid pSG5.
The reporter construct comprises 3 tandem repeats of the hormone responsive element (HRE) oligonucleotide:
upstream of the minimal adenovirus E1B TATA promotor sequence ([…]) inserted in the multiple cloning site of the luciferase reporter construct pGL3 (as described in Legler et al., supra).
In order to determine the responsiveness of the U2-OS based steroid reporter cell lines, cells were plated in 96-wells plates and treated for 24 hours with hormone in the culture medium containing 5% charcoal-stripped serum.
The PR cell line was generated by stably transfecting the human U2-OS cell line with pSG5-hPR and the 3×HRE-TATA-Luc reporter constructs.

Structures are written as SMILES. Like-named read-outs stand apart in the source and are kept apart here. Some results are limits rather than exact numbers.

On ER-alpha, `C[C@]12CCC(=O)C=C1CC[C@@H]1[C@@H]2CC[C@]2(C)C(=O)CC[C@@H]12` [androstenedione] came in with an EC50 of over 10 µM. With `C[C@]12CC[C@H](O)CC1=CC[C@@H]1[C@@H]2CC[C@]2(C)C(=O)CC[C@@H]12` [DHEA], in experiment [1] (logEC50, U2-OS reporter cell line, 24 hours with hormone, 5% charcoal-stripped serum), the “potency (logEC50) PR” value is listed as over −5.0. The compound `C[C@]12CCC(=O)C[C@@H]1CC[C@@H]1[C@@H]2CC[C@]2(C)[C@@H](O)CC[C@@H]12` [dihydro-testosterone, 5α-dihydro-testosterone] showed an EC50 in experiment [1] of 3.98 µM. Same read-out and setting: as for `C[C@]12CC[C@H]3[C@@H](CCC4=CC(=O)CC[C@@]43C)[C@@H]1CC[C@@H]2O` [testosterone], the figure is 7.94 µM.

For the compound `C[C@@H]1C[C@H]2[C@@H]3CCC4=CC(=O)C=C[C@]4(C)[C@@]3(F)[C@@H](O)C[C@]2(C)[C@@]1(O)C(=O)CO` [Dexamethasone], in experiment [1] (logEC50, U2-OS reporter cell line, 24 hours with hormone, 5% charcoal-stripped serum, read-out: potency (logEC50) PR (converted)), the EC50 is over 10 µM. In turn, `C[C@]1(O)CC[C@H]2[C@@H]3CCC4=CC(=O)CCC4=C3C=C[C@@]21C` [R1881] showed an EC50 on ER-alpha of over 10 µM.

Take `C[C@]12CC[C@H]3[C@@H](CCC4=CC(=O)CC[C@@H]43)[C@@H]1CC[C@@H]2O` [Nandrolone]: the figures for the EC50 (in experiment [1]; at ER-alpha) were 0.00501 µM and 0.0398 µM, respectively.

These data come from patent publication US20070141568A1, “Method for determining the presence of one or more ligands in a sample” (BioDetection Systems B.V., priority 2002, published 2007).
